Assay type in all cases: in vivo
In test [1] the test system is southern armyworm (Spodoptera eridania). The test is described as follows: Southern armyworm (SAW) treated bean leaf test. To be noted: bean leaves, 100 or 500 ppm; second instar larvae, five days. How it is done:
(§1) For the tick, aphids, souther armyworm, tobacco budworm, house fly, Mexican bean beetle, American cockroach, cat flea, souther corn rootworm, western corn rootworm, black cutworm, and southern root-knot nematode, a solution or suspension was prepared by adding the test compound to a solution of dimethylformamide, acetone, emulsifiers which are alkylaryl polyether alcohols organic sulfonates, and water. The result was a 100 or 500 ppm concentration of the test compound.
Southern armyworm (SAW), Mexican bean beetle (MBB): Bean leaves were wet to runoff with the 100 or 500 ppm test compound formulation. As an untreated control, a water-acetone-DMF-emulsifier solution containing no test compound was also applied wet to runoff to bean leaves. Five or six randomly selected second instar southern armyworn larvae or Mexican bean bettle larvae were introduced into each plastic container with the dry treated leaves. The container was closed and held for five days. Larvae which were unable to move the length of the body, even upon stimulation by prodding, were considered dead.

Test [2] deals with tobacco budworm (Heliothis virescens). As to the kind of experiment: Tobacco budworm (TBW) treated cotton leaf test. The settings on record: cotton leaves, 100 ppm; second instar larvae, five days. How it is done: as §1
Tobacco budworm (TBW): Cotton leaves were wet to runoff with the 100 ppm test compound formulation. As an untreated control, a water-acetone-DMF-emulsifier solution containing no test compound was also applied wet to runoff to cotton leaves. Ten randomly selected second instar tobacco budworm larvae were introduced into plastic containers in which moist dental wicks and the dry treated leaves had been placed. The cups were closed and held for five days. Larvae which were unable to move the length of the body, even upon stimulation by prodding, were considered dead.

Test [3] concerns house fly (Musca domestica). As to the kind of experiment: House fly (HF) bait test. To be noted: sucrose bait, 100 or 250 ppm; adult flies, mortality after 24 hours. How it is done: as §1
For house fly tests, the water-acetone-DMF-emulsifier solution was adjusted with a 20% by weight aqueous solution of sucrose to provide a final 100 or 250 ppm concentration of the test compound.
House fly (HF): Four to six day old adult house flies were used. The files were immobilized by anesthetizing with carbon dioxide. A bait cup was prepared which contained the 100 or 250 ppm test compound formulation/sucrose solution and one or two absorbent cotton pad(s). As an untreated control, a water-acetone-DMF-emulsifier-sucrose solution containing no test compound was applied in a similar manner. The bait cup was introduced inside the cage prior to admitting 12-25 anesthetized flies. Mortality was assessed after 24 hours.

Test [4] has as its system American cockroach (Periplaneta americana). The test is described as follows: American cockroach (ACR) treated food pellet test. The settings on record: food pellets with 500 ppm formulation; nymphs, contact and feeding mortality 1 and 5 days after infestation. How it is done:
as §1
American cockroach (ACR): Cat food or dog food pellets were added to jars containing 1-2 mls of the 500 ppm test formulation. As an untreated control, an aliquot of a water-acetone-DMF-emulsifier solution containing no test compound was applied in a similar manner. After 48 hours, roach nymphs were added to the jar. Contact and feeding mortally was assessed 1 and 5 days after infestation.

Test [5] relates to western corn rootworm (Diabrotica virgifera virgifera). The test is described as follows: Western corn rootworm (WCRW) soil test. The settings on record: soil concentration 0.15 or 0.5 ppm; neonate larvae, mortality six days after infestation. How it is done:
as §1
For the western corn rootworm test, the water-acetone-DMF-emulsifier solution was adjusted for a treatment rate of 0.15 or 0.5 ppm.
Western corn rootworm (WCRW): The 500 ppm test formulation was applied to dry sandy loam soil contained in a glass jar for a soil concentration of 0.15 or 0.5 ppm. As an untreated control, an aliquot of a water-acetone-DMF-emulsifier solution containing no test compound was applied in a similar manner. After incubating covered for 24 hours, the soil was mixed and four germinated corn seedlings were added to the jar. Ten neonate western corn rootworm larvae were placed in the jar. Six days after infestation, mortality was assessed by Berlese funnel extraction.

The test system of test [6] is southern corn rootworm (Diabrotica undecimpunctata howardi). As to the kind of experiment: Southern corn rootworm (SCRW) soil test. To be noted: soil concentration 2.5, 5, 6.75 or 10 ppm; mortality eight days after infestation. How it is done: as §1
For southern corn rootworm and black cutworm tests, the water-acetone-DMF-emulsifier solution was adjusted for a treatment rate of 2.5, 5, 6.75 or 10 ppm.
Southern corn rootworm (SCRW), Black cutworm (BCW): Corn seeds were placed in a glass jar and covered with dry sandy loam soil. The 500 ppm test formulation was applied for a soil concentration of 2.5, 5, 6.75 or 10 ppm. As an untreated control, an aliquot of a water-acetone-DMF-emulsifier solution containing no test compound was applied in a similar manner. After incubating covered for 24 hours, the soil was mixed and inoculated with approximately 25 southern corn rootworm eggs. Following an additional 48 hours, two late second to early third instar black cutworms were placed in the jar with a portion of insect diet. Eight days after infestation, mortality was assessed visually for cutworm and by Berlese funnel extraction for rootworm.

Test [7] deals with cotton aphid (Aphis gossypii). The test is described as follows: Cotton aphid (CA) foliar spray test. The settings on record: cotton plants wet to runoff, 100 or 500 ppm; dead aphids counted after three days. How it is done: as §1
Buckthorn aphid (BA) or cotton aphid (CA): Adult and nymphal stages of buckthorn or cotton aphid were reared on potted dwarf nasturtium or cotton plants, respectively. Plants infested with 100-150 aphids were wet to runoff with the 100 or 500 ppm test compound formulation. As an untreated control, a water-acetone-DMF-emulsifier solution containing no test compound was also applied to runoff to infested plants. The treated plants were stored for one day for buckthorn aphid and three days for cotton aphid, after which the dead aphids were counted.

For test [8], the system named is southern root-knot nematode (Meloidogyne incognita). As to the kind of experiment: Southern root-knot nematode (SRKN) soil test. To be noted: soil treatment 23 kg/ha; tomato or cotton root galling rated after 2-3 weeks. How it is done: as §1
For the southern root-knot nematode tests, the water-acetone-DMF-emulsifier solution was adjusted for a treatment rate of 23 kg/ha soil concentration.
Southern root-knot nematode (SRKN): Eggs and second stage juveniles (J2s) of southern root-knot nematodes were obtained from infected roots of reared tomato plants. Pots containing moist soil were treated with the test compound solution for a treatment rate of 23 kg/ha. As an untreated control, an aliquot of a water-acetone-DMF-emulsifier solution containing no test compound was applied in a similar manner. Immediately after treatment, eggs or J2s of southern root-knot nematode were added to the treated soil. For test with cotton, the seeds were placed on top of the soil the day of treatment and inoculation. For the tests with tomato, the seedlings were transplanted in the pot three days after treatment. The pots were kept in the greenhouse for 2-3 weeks. At the termination of the test, roots of the tomato or cotton seedlings were evaluated for galling on a rating scale from 1 to 5 with one equal to severe galling, relative to untreated control, and five to no galling, i.e., complete control.

Molecules are shown by their SMILES.

The source of these data is patent publication US6395906B1, “Intermediates to pesticidal 1-arylpyrazoles” (Rhone-Poulenc Inc., priority 1995, dated 2002).

Turning to `COC(C#N)c1c(S(=O)(=O)C(F)(F)F)c(C#N)nn1-c1c(Cl)cc(C(F)(F)F)cc1Cl` (stereo not shown) [Compound 16, 3-Cyano-5-{(1-cyano-1-methoxy)methyl}-1-(2,6-dichloro-4-trifluoromethylphenyl)-4-trifluoromethylsulfonylpyrazole], the SAW entry in test [1] was “+ (active against 1 or more insects described above up to 100% mortality. This activity is indicated by a “+”)”. In addition, the TBW entry in test [2] is reported as “+ (active against 1 or more insects described above up to 100% mortality. This activity is indicated by a “+”)”. Besides, the HF entry in test [3] is listed as “+ (active against 1 or more insects described above up to 100% mortality. This activity is indicated by a “+”)”. The ACR result in test [4] is given as “+ (active against 1 or more insects described above up to 100% mortality. This activity is indicated by a “+”)”. Besides, the WCRW result in test [5] is listed as “+ (active against 1 or more insects described above up to 100% mortality. This activity is indicated by a “+”)”. The SCRW result in test [6] is given as “+ (active against 1 or more insects described above up to 100% mortality. This activity is indicated by a “+”)”.

In the case of `COC(C#N)c1c(SC(F)(F)F)c(C#N)nn1-c1c(Cl)cc(C(F)(F)F)cc1Cl` (stereo not shown) [Compound 6, 3-Cyano-5-{(1-cyano-1-methoxy)methyl}-1-(2,6-dichloro-4-trifluoromethylphenyl)-4-trifluoromethylthiopyrazole], the CA result in test [7] is “+ (active against 1 or more insects described above up to 100% mortality. This activity is indicated by a “+”)”. Besides, the SAW result in test [1] is reported as “+ (active against 1 or more insects described above up to 100% mortality. This activity is indicated by a “+”)”. The HF entry in test [3] was “+ (active against 1 or more insects described above up to 100% mortality. This activity is indicated by a “+”)”. Besides, the WCRW entry in test [5] is listed as “+ (active against 1 or more insects described above up to 100% mortality. This activity is indicated by a “+”)”. Also, in test [6], the SCRW entry is “+ (active against 1 or more insects described above up to 100% mortality. This activity is indicated by a “+”)”.

For the compound `N#Cc1nn(-c2c(Cl)cc(C(F)(F)F)cc2Cl)c(C=O)c1SC(F)(F)F` [Compound 2, 3-Cyano-1-(2,6-dichloro-4-trifluoromethylphenyl)-5-formyl-4-trifluoromethylthiopyrazole], in test [5], the WCRW entry was “+ (active against 1 or more insects described above up to 100% mortality. This activity is indicated by a “+”)”.

For `COC(OC)c1c([S+]([O-])C(F)(F)F)c(C#N)nn1-c1c(Cl)cc(C(F)(F)F)cc1Cl` (stereo not shown) [Compound 13, 3-Cyano-1-(2,6-dichloro-4-trifluoromethylphenyl)-5-dimethoxymethyl-4-trifluoromethylsulfinylpyrazole], the CA result in test [7] is listed as “+ (active against 1 or more insects described above up to 100% mortality. This activity is indicated by a “+”)”. For the same compound, the TBW result in test [2] was “+ (active against 1 or more insects described above up to 100% mortality. This activity is indicated by a “+”)”. Also, the ACR entry in test [4] is on record as “+ (active against 1 or more insects described above up to 100% mortality. This activity is indicated by a “+”)”. For the same compound, in test [8], the SRKN result was “+ (active against 1 or more insects described above up to 100% mortality. This activity is indicated by a “+”)”. Besides, the WCRW entry in test [5] is given as “+ (active against 1 or more insects described above up to 100% mortality. This activity is indicated by a “+”)”.

Regarding `COC(OC)c1c(S(=O)(=O)C(F)(F)F)c(C#N)nn1-c1c(Cl)cc(C(F)(F)F)cc1Cl` [Compound 15, 3-Cyano-1-(2,6-dichloro-4-trifluoromethlphenyl)-5-dimethoxymethyl-4-trifluoromethylsulfonylpyrazole], in test [7], the CA result is reported as “+ (active against 1 or more insects described above up to 100% mortality. This activity is indicated by a “+”)”. In addition, in test [1], the SAW entry was “+ (active against 1 or more insects described above up to 100% mortality. This activity is indicated by a “+”)”. Further, the HF entry in test [3] is “+ (active against 1 or more insects described above up to 100% mortality. This activity is indicated by a “+”)”. In test [4], the ACR result is on record as “+ (active against 1 or more insects described above up to 100% mortality. This activity is indicated by a “+”)”. Moreover, the SRKN entry in test [8] is recorded as “+ (active against 1 or more insects described above up to 100% mortality. This activity is indicated by a “+”)”. In addition, in test [5], the WCRW entry is on record as “+ (active against 1 or more insects described above up to 100% mortality. This activity is indicated by a “+”)”. For the same compound, the SCRW result in test [6] is “+ (active against 1 or more insects described above up to 100% mortality. This activity is indicated by a “+”)”.

Regarding `COC(OC)c1c(SC(F)(F)F)c(C#N)nn1-c1c(Cl)cc(C(F)(F)F)cc1Cl` [Compound 4, 3-Cyano-1-(2,6-dichloro-4-trifluoromethylphenyl)-5-dimethoxymethyl-4-trifluoromethylthiopyrazole], in test [5], the WCRW entry is listed as “+ (active against 1 or more insects described above up to 100% mortality. This activity is indicated by a “+”)”.

As to `CN(C)N=Cc1c(SC(F)(F)F)c(C#N)nn1-c1c(Cl)cc(C(F)(F)F)cc1Cl` [Compound 11, 3-Cyano-1-(2,6-dichloro-4-trifluoromethylphenyl)-5-(N,N-dimethylaminoiminomethylidenyl)-4-trifluoromethylthiopyrazole], the HF result in test [3] is “+ (active against 1 or more insects described above up to 100% mortality. This activity is indicated by a “+”)”. In test [5], the WCRW entry is given as “+ (active against 1 or more insects described above up to 100% mortality. This activity is indicated by a “+”)”. Also, the SCRW entry in test [6] is given as “+ (active against 1 or more insects described above up to 100% mortality. This activity is indicated by a “+”)”.
